Results on two compounds are retold here after patent US20240065971A1, “METHODS OF TREATING ABC-DLBCL USING INHIBITORS OF BRUTONS TYROSINE KINASE” (Pharmacyclics LLC, priority 2010, published 2024).

In assay [1] the test system is OCI-Ly3 cells. Nature of the assay: IgM/IgG stimulated calcium flux (Fura-2AM). The conditions noted are these: OCI-Ly3, inhibitor added 5 min before stimulation. It counts as cell-based. The text has this:
(§1) The kinetics of calcium flux were quantitated by optical spectroscopy following standard procedures.

Assay [2] has as its system OCI-Ly10 cells. The experiment in a line: IgM/IgG stimulated calcium flux (Fura-2AM). The conditions noted are these: OCI-Ly10, inhibitor added 5 min before stimulation. It counts as cell-based.
Excerpt: as §1

Assay [3] has as its system OCI-Ly3 cells. The note with it: 10 nM, up to 4 hours.
Assay [4] relates to OCI-Ly10 cells. The experiment in a line: Dose response of p-ERK by Western blotting. It counts as cell-based.
Assay [5] concerns OCI-Ly10 cells. Nature of the assay: Constitutive IL-10 secretion by ELISA. The assay is classed as cell-based.
The subject of assay [6] is OCI-Ly10 tumor xenografts. Nature of the assay: OCI-Ly10 tumor xenografts in female SCID mice. The conditions noted are these: once a day 3 mg/kg or 12 mg/kg, vs vehicle. The assay is classed as in vivo. The text has this: Female SCID mice were implanted with 10 million […] cells in Matrigel and tumors were allowed to reach 100 mm^3.
The subject of assay [7] is OCI-Ly10 cells. The conditions noted are these: 10 nM, up to 4 hours.
Assay [8] concerns OCI-Ly10 cells. The experiment in a line: RT-PCR (Taqman) of NF-kB target genes. The assay is classed as cell-based. The conditions noted are these: 100 nM, 4 hrs.

For `C=CC(=O)N1CCC[C@@H](n2nc(-c3ccc(Oc4ccccc4)cc3)c3c(N)ncnc32)C1` [Btk inhibitor], the “calcium flux after stimulation” value with OCI-Ly3 cells [1] and with OCI-Ly10 cells [2] was “dose-dependent reduction” each time. Also, the “Phosphorylation of AKT” value is given as “inhibited” in the assay with OCI-Ly3 cells [3] and “rapidly abolished” in the assay on OCI-Ly10 cells [7]. Besides, the “concentration that decreases p-ERK” value in the assay with OCI-Ly10 cells [4] came out at 1 nM. For the same compound, the “Constitutive IL-10 secretion” value in the assay on OCI-Ly10 cells [5] is recorded as “inhibited”. In addition, the tumor growth entry in assay [6] is reported as “dose-dependent inhibition”. Moreover, the “Phosphorylation of ERK” value in the assay on OCI-Ly10 cells [7] was “rapidly abolished”. Besides, the Myc expression entry in the assay on OCI-Ly10 cells [8] is recorded as “maximally downregulated”.
With `CC[C@H](Nc1ncnc2[nH]cnc12)c1nc2cccc(F)c2c(=O)n1-c1ccccc1` [CAL-101, reference compound], in the assay on OCI-Ly10 cells [4], the “concentration that decreases p-ERK” value was determined as 100 nM.
